Experimental data: article PMC3973950, “Synthesis of 5-arylidine amino-1,3,4-thiadiazol-2-[(N-substituted benzyol)]sulphonamides endowed with potent antioxidants and anticancer activity induces growth inhibition in HEK293, BT474 and NCI-H226 cells” (Medicinal Chemistry Research, 2013)

Tests used:
[1] = In vitro cytotoxicity by MTT assay, HEK 293; format: cell-based, human; settings: human, HEK 293 cells; for cytotoxicity at 72 h, 0.005 µM / cytotoxicity at 72 h, 0.015 µM / cytotoxicity at 72 h, 0.045 µM / cytotoxicity at 72 h, 0.13 µM / cytotoxicity at 72 h, 0.41 µM / cytotoxicity at 72 h, 1.23 µM / cytotoxicity at 72 h, 3.7 µM / cytotoxicity at 72 h, 11.11 µM / cytotoxicity at 72 h, 33.33 µM / cytotoxicity at 72 h, 100 µM: read-out: % cytotoxicity (100 − % cell survival) of HEK 293 cell line
In short: (§1)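 RPMI-1640, 10 % newborn calf serum; ~10,000 cells/well, 24 h attachment; compound 72 h, 37 °C, 5 % CO2; MTT 4 h; propanol; A490.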

[2] = tested on: BT474 (breast cancer cell line); assay: In vitro cytotoxicity by MTT assay, BT474; format: cell-based; settings: Homo sapiens, 72 h, read-out: % cytotoxicity (100 − % cell survival) of BT474 cell line; for cytotoxicity at 0.005 µM: BT-474, 0.005 μM; for cytotoxicity at 0.015 µM: BT-474, 0.015 μM; for cytotoxicity at 0.045 µM: BT-474, 0.045 μM; for cytotoxicity at 0.13 µM: BT-474, 0.13 μM; for cytotoxicity at 0.41 µM: BT-474, 0.41 μM; for cytotoxicity at 1.23 µM: BT-474, 1.23 μM; for cytotoxicity at 3.7 µM: BT-474, 3.7 μM; for cytotoxicity at 11.11 µM: BT-474, 11.11 μM; for cytotoxicity at 33.33 µM: BT-474, 33.33 μM; for cytotoxicity at 100 µM: BT-474, 100 μM
In short: as §1

[3] = In vitro cytotoxicity by MTT assay, NCI-H226; format: cell-based; settings: human, NCI-H226 lung cancer cells, 0.015 μM, read-out: % Cytotoxicity (100 − % cell survival) of NCI-H226 cell line
In short: as §1

[4] = tested on: NCI-H226 (lung cancer cell line); assay: In vitro cytotoxicity by MTT assay, NCI-H226; format: cell-based; settings: Homo sapiens, 72 h; for cytotoxicity at 0.005 µM: NCI-H226, 0.005 μM; for cytotoxicity at 0.005 µM / cytotoxicity at 0.045 µM / cytotoxicity at 0.13 µM / cytotoxicity at 0.41 µM / cytotoxicity at 1.23 µM / cytotoxicity at 3.7 µM / cytotoxicity at 11.11 µM / cytotoxicity at 33.33 µM / cytotoxicity at 100 µM: read-out: % Cytotoxicity (100 − % cell survival) of NCI-H226 cell line; for cytotoxicity at 0.045 µM: NCI-H226, 0.045 μM; for cytotoxicity at 0.13 µM: NCI-H226, 0.13 μM; for cytotoxicity at 0.41 µM: NCI-H226, 0.41 μM; for cytotoxicity at 1.23 µM: NCI-H226, 1.23 μM; for cytotoxicity at 3.7 µM: NCI-H226, 3.7 μM; for cytotoxicity at 11.11 µM: NCI-H226, 11.11 μM; for cytotoxicity at 33.33 µM: NCI-H226, 33.33 μM; for cytotoxicity at 100 µM: NCI-H226, 100 μM
In short: as §1

[5] = tested on: HEK 293, M468 and NCI-H226; assay: In vitro cytotoxicity by MTT assay, summary over all cell lines; format: cell-based; settings: on all cell lines
Procedure: The cancer cell line cultures of HEK 293 ([…]), BT474 (breast cancer cell line) and NCI-H226 (lung cancer) were obtained from Pasteur Institute of India, Coonoor, India, and were cultured in RPMI-1640 and 10 % heat-[…] New born calf serum with antibiotics [penicillin ([…]), streptomycin (100 μg/mL) and amphotericin B (25 μg/mL)]. The cells were maintained at 37 °C in a humidified atmosphere with 5 % CO2 and were subcultured twice a week.
The monolayer cell culture (100 μL) was trypsinized, and the cell count was adjusted to […] using medium containing 10 % new born calf serum. To each well of the 96-well microtitre plate, the diluted cell suspension (approximately 10,000 cells) (0.1 mL) was added and kept for 24 h in incubator at 37 °C in 5 % CO2 atmosphere for cell monolayer formation. After 24 h, when a partial monolayer was formed at the bottom of the well, the supernatant was flicked off, the monolayer was washed once, and different drugs, i.e. synthesized compounds (100 μL), were added to the cells in microtitre plates. The plates were then incubated at 37 °C for 3 days in 5 % CO2 atmosphere, and microscopic examination was carried out and observations recorded every 24 h. After 72 h, the sample solution in the wells was flicked off; MTT dye ([…]) was added to each well; plates were gently shaken and incubated for 4 h at 37 °C in 5 % CO2 incubator. The supernatant was removed and propanol (50 μL) was added; the plates were gently shaken to solubilize the formed formazan. The absorbance was measured using a microplate reader at a wavelength of 490 nm (Edmondson et al., [1988]; Prasad et al., [2005]; Chiruvella et al., [2008]; Chang et al., [2007]).

Row | SMILES | cytotoxicity at 72 h, 0.005 µM [1] [%] | cytotoxicity at 72 h, 0.015 µM [1] [%] | cytotoxicity at 72 h, 0.045 µM [1] [%] | cytotoxicity at 72 h, 0.13 µM [1] [%] | cytotoxicity at 72 h, 0.41 µM [1] [%] | cytotoxicity at 72 h, 1.23 µM [1] [%] | cytotoxicity at 72 h, 3.7 µM [1] [%] | cytotoxicity at 72 h, 11.11 µM [1] [%] | cytotoxicity at 72 h, 33.33 µM [1] [%] | cytotoxicity at 72 h, 100 µM [1] [%] | cytotoxicity at 0.005 µM [2] [%] | cytotoxicity at 0.015 µM [2] [%] | cytotoxicity at 0.045 µM [2] [%] | cytotoxicity at 0.13 µM [2] [%] | cytotoxicity at 0.41 µM [2] [%] | cytotoxicity at 1.23 µM [2] [%] | cytotoxicity at 3.7 µM [2] [%] | cytotoxicity at 11.11 µM [2] [%] | cytotoxicity at 33.33 µM [2] [%] | cytotoxicity at 100 µM [2] [%] | also measured
1 | CC(=O)Nc1ccc(S(=O)(=O)Nc2nnc(S(=O)(=O)NC(=O)c3cccc([N+](=O)[O-])c3)s2)cc1 [Compound 6f] | 39.3 | 42.2 | 45.4 | 47.2 | 49.1 | 51.2 | 54.2 | 58.6 | 59.3 | 62.4 | 29.1 | 30.1 | 32.1 | 33.4 | 35.8 | 37.2 | 40.6 | 42.2 | 45.3 | 50.8 | CC50 (50% cytotoxic concentration) at 72 h ([1]; HEK 293, concentration at which 50 % of the cells are dead, read-out: CTCC50 (cytotoxicity concentration)): 1.12 µM; cytotoxicity at 72 h, 0.015 µM [3]: 44.9%; cytotoxicity at 0.005 µM [4]: 41.3%; cytotoxicity at 0.045 µM [4]: 46.5%; cytotoxicity at 0.13 µM [4]: 48.3%; cytotoxicity at 0.41 µM [4]: 51.3%; cytotoxicity at 1.23 µM [4]: 54.6%; cytotoxicity at 3.7 µM [4]: 55.2%; cytotoxicity at 11.11 µM [4]: 57.1%; cytotoxicity at 33.33 µM [4]: 59.6%; cytotoxicity at 100 µM [4]: 66%; cytotoxic activity compared with all synthesized compounds [5]: more potent
2 | CC(=O)Nc1ccc(S(=O)(=O)Nc2nnc(S(=O)(=O)NC(=O)c3ccc([N+](=O)[O-])cc3)s2)cc1 [Compound 6e] | 39.1 | 42 | 42.7 | 43.4 | 45.3 | 47.1 | 49.1 | 49.9 | 51.2 | 55 | 27.1 | 28 | 28.1 | 28.7 | 29.4 | 30.1 | 31.1 | 32.5 | 34.8 | 37.3 | cytotoxicity at 72 h, 0.015 µM [3]: 41.2%; cytotoxicity at 0.005 µM [4]: 38.8%; cytotoxicity at 0.045 µM [4]: 42.4%; cytotoxicity at 0.13 µM [4]: 45.4%; cytotoxicity at 0.41 µM [4]: 47.6%; cytotoxicity at 1.23 µM [4]: 48.6%; cytotoxicity at 3.7 µM [4]: 49.2%; cytotoxicity at 11.11 µM [4]: 50.8%; cytotoxicity at 33.33 µM [4]: 51.1%; cytotoxicity at 100 µM [4]: 54.5%; cytotoxic activity compared with all synthesized compounds [5]: moderate activity
3 | CC(=O)Nc1ccc(S(=O)(=O)Nc2nnc(S(=O)(=O)NC(=O)c3ccccc3N)s2)cc1 [Compound 6b] | 35.6 | 36.2 | 37.9 | 39.9 | 42.6 | 43.1 | 44 | 45.3 | 46.8 | 48.2 | 24.3 | 25.1 | 25.8 | 26.2 | 27.1 | 28.1 | 28.7 | 29.3 | 30.3 | 32 | cytotoxicity at 72 h, 0.015 µM [3]: 37.3%; cytotoxicity at 0.005 µM [4]: 36.3%; cytotoxicity at 0.045 µM [4]: 38.4%; cytotoxicity at 0.13 µM [4]: 39.1%; cytotoxicity at 0.41 µM [4]: 42%; cytotoxicity at 1.23 µM [4]: 42.7%; cytotoxicity at 3.7 µM [4]: 43.4%; cytotoxicity at 11.11 µM [4]: 45.3%; cytotoxicity at 33.33 µM [4]: 47.1%; cytotoxicity at 100 µM [4]: 49.1%; cytotoxic activity compared with all synthesized compounds [5]: moderate activity
4 | Nc1ccc(S(=O)(=O)Nc2nnc(S(=O)(=O)NC(=O)c3cccc([N+](=O)[O-])c3)s2)cc1 [Compound 7f] | 33.2 | 35.1 | 36 | 37 | 37.5 | 38.7 | 39.5 | 40.6 | 41.2 | 43.8 | 42.4 | 45.8 | 47.2 | 50.1 | 52.2 | 54.2 | 56.7 | 58.6 | 60.3 | 64.1 | cytotoxicity at 72 h, 0.015 µM [3]: 39.3%; cytotoxicity at 0.005 µM [4]: 38.8%; cytotoxicity at 0.045 µM [4]: 40.1%; cytotoxicity at 0.13 µM [4]: 42.6%; cytotoxicity at 0.41 µM [4]: 46.1%; cytotoxicity at 1.23 µM [4]: 52.1%; cytotoxicity at 3.7 µM [4]: 56.4%; cytotoxicity at 11.11 µM [4]: 60.7%; cytotoxicity at 33.33 µM [4]: 65.8%; cytotoxicity at 100 µM [4]: 68%; CC50 ([4]; NCI-H226, concentration at which 50 % of the cells are dead, read-out: CTC50 (cytotoxicity concentration)): 1.78 µM; cytotoxic activity compared with all synthesized compounds [5]: more potent
